Columns and labels:
human CSNK1A1 = human CSNK1A1 (Homo sapiens (Human), UniProt P48729); experiment: CSNK1A1 assay (ADP-Glo, 1 μM ATP); format: biochemical; details: median, read-out: CSNK1A1 Low ATP IC50 [mol/l] (median)
Method: CSNK1A1-inhibitory activity of compounds of the present invention in presence of 1 μM adenosine-tri-phosphate (ATP) was quantified employing the CSNK1A1 assay as described in the following paragraphs. In essence, the enzyme activity is measured by quantification of the adenosine-di-phosphate (ADP), which is generated as a co-product of the enzyme reaction, via the “ADP-Glo™ Kinase Assay” kit from the company Promega. This detection system works as follows: In a first step the ATP not consumed in the kinase reaction is quantitatively converted to CAMP employing an adenylate cyclase (“ADP-Glo-reagent”), then the adenylate cyclase is stopped and the ADP generated in the kinase reaction converted to ATP which generates in a luciferase-based reaction a glow-luminescence signal (“Kinase Detection Reagent”).
(§1) Recombinant fusion protein of N-terminal Glutathion-S-Transferase (GST) and full-length human CSNK1A1, expressed by baculovirus infected insect cells and purified via Glutathion affinity chromatography, was purchased from Life Technologies (product no. PV4174) and used as enzyme. As substrate for the kinase reaction the biotinylated peptide biotin-Ahx-KRRRAL-pS-VASLPGL (C-terminus in amide form) was used which can be purchased e.g. from the company Biosyntan (Berlin-Buch, Germany).
For the assay 50 nl of a 100-fold concentrated solution of the test compound in DMSO was pipetted into a white 1536-well microtiter plate (Greiner Bio-One, Frickenhausen, Germany), 2 μL of a solution of CSNK1A1 in aqueous assay buffer [50 mM HEPES pH 7.5, 10% (v/v) glycerol, 10 mM MgCl2, 50 mM NaCl, 1 mM dithiothreitol, 0.01% (w/v) bovine serum albumin, 0.01% (v/v) Triton X-100] were added and the mixture was incubated for 15 min at 22° C. to allow pre-binding of the test compounds to the enzyme before the start of the kinase reaction. Then the kinase reaction was started by the addition of 3 μL of a solution of ATP (1.67 μM=>final conc. in the 5 μL assay volume is 1 μM) and peptide substrate (50 μM=>final conc. in the 5 μL assay volume is 30 μM) in assay buffer and the resulting mixture was incubated for a reaction time of 30 min at 22° C. The concentration of CSNK1A1 was adjusted depending of the activity of the enzyme lot and was chosen appropriate to have the assay in the linear range, a typical concentrations are about 0.0375 ng/μL. The reaction was stopped by the addition of 2.5 μL of “ADP-Glo-reagent” (1:1.5 fold diluted with water) and the resulting mixture was incubated at 22° C. for 1 h to convert the ATP not consumed in the kinase reaction completely to CAMP. Subsequently 2.5 μL of the “kinase detection reagent” (1.2 fold more concentrated than recommended by the producer) were added, the resulting mixture was incubated at 22° C. for 1 h and then the luminescence measured with a suitable measurement instrument (e.g. Viewlux™ from Perkin-Elmer). The amount of emitted light was taken as a measure for the amount of ADP generated and thereby for the activity of the CSNK1A1.
(§2) The data were normalised (enzyme reaction without inhibitor=0% inhibition, all other assay components but no enzyme=100% inhibition).

human CSNK1D = human CSNK1D (Homo sapiens (Human), UniProt P48730); experiment: CSNK1D assay (ADP-Glo, 1 μM ATP); format: biochemical; details: median, read-out: CSNK1D IC50 [mol/l] (median)
Sequence of human CSNK1D (P48730 whole entry): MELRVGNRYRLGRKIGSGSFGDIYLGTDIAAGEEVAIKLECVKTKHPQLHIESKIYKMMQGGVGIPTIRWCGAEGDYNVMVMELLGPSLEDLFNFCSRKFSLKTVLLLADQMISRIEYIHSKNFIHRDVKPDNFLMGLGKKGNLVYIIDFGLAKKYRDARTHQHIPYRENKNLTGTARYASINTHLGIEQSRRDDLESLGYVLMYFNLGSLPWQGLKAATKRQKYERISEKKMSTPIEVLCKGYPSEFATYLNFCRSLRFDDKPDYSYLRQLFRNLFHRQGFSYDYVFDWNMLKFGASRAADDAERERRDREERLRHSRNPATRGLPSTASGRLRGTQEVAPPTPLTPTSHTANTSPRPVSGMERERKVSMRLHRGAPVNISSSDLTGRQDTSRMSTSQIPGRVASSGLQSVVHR
Method: CSNK1D-inhibitory activity of compounds of the present invention in presence of 1 μM adenosine-tri-phosphate (ATP) was quantified employing the CSNK1D assay as described in the following paragraphs. In essence, the enzyme activity is measured by quantification of the adenosine-di-phosphate (ADP), which is generated as a co-product of the enzyme reaction, via the “ADP-Glo™ Kinase Assay” kit from the company Promega. This detection system works as follows: In a first step the ATP not consumed in the kinase reaction is quantitatively converted to CAMP employing an adenylate cyclase (“ADP-Glo-reagent”), then the adenylate cyclase is stopped and the ADP generated in the kinase reaction converted to ATP which generates in a luciferase-based reaction a glow-luminescence signal (“Kinase Detection Reagent”).
as §1, with “CSNK1D,” for “CSNK1A1,”, “PV3665)” for “PV4174)”, “Btn-Ahx-SGSEGDSESGEEEG” for “biotin-Ahx-KRRRAL-pS-VASLPGL”
For the assay 50 nl of a 100-fold concentrated solution of the test compound in DMSO was pipetted into a white 1536-well microtiter plate (Greiner Bio-One, Frickenhausen, Germany), 2 μL of a solution of CSNK1D in aqueous assay buffer [50 mM HEPES pH 7.5, 10% (v/v) glycerol, 10 mM MgCl2, 50 mM NaCl, 1 mM dithiothreitol, 0.01% (w/v) bovine serum albumin, 0.01% (v/v) Triton X-100] were added and the mixture was incubated for 15 min at 22° C. to allow pre-binding of the test compounds to the enzyme before the start of the kinase reaction. Then the kinase reaction was started by the addition of 3 μL of a solution of ATP (1.67 μM=>final conc. in the 5 μL assay volume is 1 μM) and peptide substrate (50 μM=>final conc. in the 5 μL assay volume is 30 μM) in assay buffer and the resulting mixture was incubated for a reaction time of 30 min at 22° C. The concentration of CSNK1D was adjusted depending of the activity of the enzyme lot and was chosen appropriate to have the assay in the linear range, a typical concentration is about 0.5 ng/μL. The reaction was stopped by the addition of 2.5 μL of “ADP-Glo-reagent” (1:1.5 fold diluted with water) and the resulting mixture was incubated at 22° C. for 1 h to convert the ATP not consumed in the kinase reaction completely to CAMP. Subsequently 2.5 μL of the “kinase detection reagent” (1.2 fold more concentrated than recommended by the producer) were added, the resulting mixture was incubated at 22° C. for 1 h and then the luminescence measured with a suitable measurement instrument (e.g. Viewlux™ from Perkin-Elmer). The amount of emitted light was taken as a measure for the amount of ADP generated and thereby for the activity of the CSNK1D.
as §2

Sequence of human CSNK1A1 (P48729 whole entry): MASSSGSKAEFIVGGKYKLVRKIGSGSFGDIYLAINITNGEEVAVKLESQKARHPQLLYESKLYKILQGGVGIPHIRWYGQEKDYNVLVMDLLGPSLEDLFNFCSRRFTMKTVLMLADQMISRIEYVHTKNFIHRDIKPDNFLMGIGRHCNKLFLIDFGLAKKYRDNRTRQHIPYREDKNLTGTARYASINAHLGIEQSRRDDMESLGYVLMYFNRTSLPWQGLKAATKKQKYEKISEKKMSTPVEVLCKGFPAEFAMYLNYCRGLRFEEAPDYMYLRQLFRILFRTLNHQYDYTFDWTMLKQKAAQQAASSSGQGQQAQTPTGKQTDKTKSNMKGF

SMILES	IC50 (human CSNK1A1) [nM]	IC50 (human CSNK1D) [nM]
O=C(Cc1cc2ccccn2n1)Nc1cc(-c2[nH]c3cccnc3c2-c2ccccn2)ccn1 [Example 15, 2-pyrazolo[1,5-a]pyridin-2-yl-N-[4-[3-(2-pyridyl)-^1H-pyrrolo[3,2-b]pyridin-2-yl]-2-pyridyl]acetamide]	1.07	3.75
Cn1cc(CC(=O)Nc2cc(-c3[nH]c4cccnc4c3-c3ccccn3)ccn2)cn1 [Example 2, 2-(1-methylpyrazol-4-yl)-N-[4-[3-(2-pyridyl)-^1H-pyrrolo[3,2-b]pyridin-2-yl]-2-pyridyl]acetamide]	4.21	11.1
Cc1nc(C)c(CC(=O)Nc2cc(-c3[nH]c4cccnc4c3-c3ccccn3)ccn2)s1 [Example 18, 2-(2,4-dimethylthiazol-5-yl)-N-[4-[3-(2-pyridyl)-^1H-pyrrolo[3,2-b]pyridin-2-yl]-2-pyridyl]acetamide]	1.46	3.8
Cc1nn(C)cc1CC(=O)Nc1cc(-c2[nH]c3cccnc3c2-c2ccccn2)ccn1 [Example 9, 2-(1,3-dimethylpyrazol-4-yl)-N-[4-[3-(2-pyridyl)-^1H-pyrrolo[3,2-b]pyridin-2-yl]-2-pyridyl]acetamide]	2.61	5.66
Cc1cc(CC(=O)Nc2cc(-c3[nH]c4cccnc4c3-c3ccccn3)ccn2)nn1C [Example 16, 2-(1,5-dimethylpyrazol-3-yl)-N-[4-[3-(2-pyridyl)-^1H-pyrrolo[3,2-b]pyridin-2-yl]-2-pyridyl]acetamide]	2.74	6.57
Cc1noc(C)c1CC(=O)Nc1cc(-c2[nH]c3cccnc3c2-c2ccccn2)ccn1 [Example 12, 2-(3,5-dimethylisoxazol-4-yl)-N-[4-[3-(2-pyridyl)-^1H-pyrrolo[3,2-b]pyridin-2-yl]-2-pyridyl]acetamide]	1.71	5.02
Cc1nn(C)c(C)c1CC(=O)Nc1cc(-c2[nH]c3cccnc3c2-c2ccccn2)ccn1 [Example 17, N-[4-[3-(2-pyridyl)-^1H-pyrrolo[3,2-b]pyridin-2-yl]-2-pyridyl]-2-(1,3,5-trimethylpyrazol-4-yl)acetamide]	2.97	6.87
O=C(Cc1ccon1)Nc1cc(-c2[nH]c3cccnc3c2-c2ccccn2)ccn1 [Example 10, 2-isoxazol-3-yl-N-[4-[3-(2-pyridyl)-^1H-pyrrolo[3,2-b]pyridin-2-yl]-2-pyridyl]acetamide]	1.97	5.6
Cc1ocnc1CC(=O)Nc1cc(-c2[nH]c3cccnc3c2-c2ccccn2)ccn1 [Example 11, 2-(5-methyloxazol-4-yl)-N-[4-[3-(2-pyridyl)-^1H-pyrrolo[3,2-b]pyridin-2-yl]-2-pyridyl]acetamide]	3.43	8.09
Cn1cnc(CC(=O)Nc2cc(-c3[nH]c4cccnc4c3-c3ccccn3)ccn2)c1 [Example 5, 2-(1-methylimidazol-4-yl)-N-[4-[3-(2-pyridyl)-^1H-pyrrolo[3,2-b]pyridin-2-yl]-2-pyridyl]acetamide]	4.12	13.1

Now from value to compound:

IC50 (human CSNK1A1) [nM]	IC50 (human CSNK1D) [nM]	SMILES
2.28	6.3	CC(C)n1ccc(CC(=O)Nc2cc(-c3[nH]c4cccnc4c3-c3ccccn3)ccn2)n1 [Example 28, 2-(1-isopropylpyrazol-3-yl)-N-[4-[3-(2-pyridyl)-^1H-pyrrolo[3,2-b]pyridin-2-yl]-2-pyridyl]acetamide]
1.62	4.88	Cn1nc(CC(=O)Nc2cc(-c3[nH]c4cccnc4c3-c3ccccn3)ccn2)cc1C(F)(F)F [Example 21, 2-[1-methyl-5-(trifluoromethyl)pyrazol-3-yl]-N-[4-[3-(2-pyridyl)-^1H-pyrrolo[3,2-b]pyridin-2-yl]-2-pyridyl]acetamide]
2.62	6.69	Cc1nocc1CC(=O)Nc1cc(-c2[nH]c3cccnc3c2-c2ccccn2)ccn1 [Example 30, 2-(3-methylisoxazol-4-yl)-N-[4-[3-(2-pyridyl)-^1H-pyrrolo[3,2-b]pyridin-2-yl]-2-pyridyl]acetamide]
1.42	4.68	O=C(Cc1ccno1)Nc1cc(-c2[nH]c3cccnc3c2-c2ccccn2)ccn1 [Example 23, 2-isoxazol-5-yl-N-[4-[3-(2-pyridyl)-^1H-pyrrolo[3,2-b]pyridin-2-yl]-2-pyridyl]acetamide]
2.03	6.64	Cc1cc(CC(=O)Nc2cc(-c3[nH]c4cccnc4c3-c3ccccn3)ccn2)no1 [Example 26, 2-(5-methylisoxazol-3-yl)-N-[4-[3-(2-pyridyl)-^1H-pyrrolo[3,2-b]pyridin-2-yl]-2-pyridyl]acetamide]
1.57	6.38	O=C(Cc1cc(C2CC2)on1)Nc1cc(-c2[nH]c3cccnc3c2-c2ccccn2)ccn1 [Example 27, 2-(5-cyclopropylisoxazol-3-yl)-N-[4-[3-(2-pyridyl)-^1H-pyrrolo[3,2-b]pyridin-2-yl]-2-pyridyl]acetamide]
3.1	3.27	O=C(Nc1cc(-c2[nH]c3c(OCC(F)F)ncnc3c2-c2ccccn2)ccn1)[C@@H](CC(F)F)c1ccc(F)cc1 [Example C3, reference compound]
1.25	3.92	O=C(Nc1cc(-c2[nH]c3nccnc3c2-c2ccccn2)ccn1)[C@@H](CC(F)F)c1ccc(F)cc1 [Example C1, reference compound]
6.82	13.9	Cn1cc(C(CC(F)F)C(=O)Nc2cc(-c3[nH]c4cccnc4c3-c3ccccn3)ccn2)cn1 (stereo not shown) [Example 19, 4,4-difluoro-2-(1-methylpyrazol-4-yl)-N-[4-[3-(2-pyridyl)-^1H-pyrrolo[3,2-b]pyridin-2-yl]-2-pyridyl]butanamide]
1.95	5.37	Cc1ncc(CC(=O)Nc2cc(-c3[nH]c4cccnc4c3-c3ccccn3)ccn2)o1 [Example 24, 2-(2-methyloxazol-5-yl)-N-[4-[3-(2-pyridyl)-^1H-pyrrolo[3,2-b]pyridin-2-yl]-2-pyridyl]acetamide]

From patent US20250188075A1, “SUBSTITUTED HETEROCYCLIC CSNK1 INHIBITORS” (The Broad Institute, Inc., priority 2022, published 2025)
